Each structure is given as a SMILES string.

Holding throughout (type): biochemical
In one assay the target is T1, yeast α-glucosidase (Saccharomyces cerevisiae, UniProt P53341).
T1 construct: purchased Sigma
Put plainly: α-Glucosidase Inhibition Assay, pH 7.4. The settings on record: read-out: ALPHA GLUCOSIDASE inhibition; for inhibition at 1000 µM: @ 1 mM; for inhibition at 5000 µM: @ 5 mM. The method, then:
(§1) The glycosidase inhibition activity is determined by modifying an assay procedure described in Evans et al, Phytochemistry, 22, pp. 768-770 (1983). More particularly, yeast α-glucosidase and almond β-glucosidase activities were measured by the Evans et al method which was modified by assaying activities at pH 7.4 in N-2-hydroxyethylpiperazine-N-2-ethane sulfonic acid (HEPES) buffer, measuring in 96 well microtiter plates, and including 10% DMSO in control and test samples.
(§2) The release of p-nitrophenol from the substrate p-nitrophenylglycoside was measured spectrophotometrically in the presence and absence of test compound. Each assay included a known inhibitor of the enzyme as a standard. IC50 values were determined for compounds which inhibited the enzymes more than 50& at a 1 millimolar concentration.
To 100 ul 50 mM HEPES buffer, pH 7.4, in a microtiter plate, 20 ul test compound in DMSO (DMSO alone in control)and 40 ul (0.013 units) yeast α-glucosidase (Sigma) in HEPES buffer were added and pre-incubated at room temperature 15 minutes. 40 ul 1.25 mM p-nitro-phenyl-α-D-glucopyranoside (Sigma) in HEPES buffer, as substrate was added and the absorbance change at 405 nm was monitored in a Biotek EIA Autoreader. Absorption change was measured at 15 to 25 minutes (reaction was linear for at least 30 minutes). Each sample was tested in triplicate. IC50 values were determined from the linear portion of the log concentration vs percent inhibition curve obtained from a minimum of 3 points. Deoxynojirimycin was used as standard inhibitor.

In assay [1] the test system is almond β-glucosidase. Put plainly: β-Glucosidase Inhibition Assay, pH 7.4. Here is the method:
as §1, §2
To 100 ul 50 mM HEPES buffer, pH 7.4, in a microtiter plate, 20 ul test compound in DMSO (DMSO alone in control) and 40 ul (0.136 units) β-glucosidase (Sigma) in HEPES buffer were added and pre-incubated at room temperature 15 minutes. 40 ul 1.25 mM p-nitrophenylβ-D-glucopyranoside in HEPES buffer was added as substrate and the absorbance change at 405 nm was monitored utilizing a Biotek EIA Autoreader. Absorption change was measured at 15 to 25 minutes (reaction is linear for at least 30 minutes). Each sample was tested in triplicate. IC50 values were determined from the linear portion of the log concentration vs percent inhibition curve obtained from a minimum of 3 points. Castanospermine was used as standard inhibitor.

The subject of assay [2] is almond β-glucosidase. Put plainly: β-Glucosidase Inhibition Assay, pH 4.8. Here is the method:
as §1, §2
To 100 ul 50 mM sodium citrate buffer, pH 4.8, in a microtiter plate, 20 ul test compound in DMSO (DMSO alone in control) and 20 ul (0.017 units) β-glucosidase (Sigma) in citrate buffer were added and pre-incubated at room temperature 15 minutes. 20 ul 2.50 mM p-nitrophenyl-β-D-glucopyranside in citrate buffer was added as substrate and incubated at room temperature 20 minutes (reaction is linear for at least 30 minutes). 50 ul 0.4 M NaOH was added and the absorption change at 405 nm was determined utilizing a Biotek EIA Autoreader. Each sample was tested in triplioate. IC50 values were determined from the linear portion of the log concentration vs percent inhibition curve obtained from a minimum of 3 points. Castanospermine was used as standard inhibitor.

Assay [3] addresses T2, ALPHA MANNOSIDASE (Canavalia ensiformis, UniProt C0HJB3).
T2 sequence (C0HJB3 1-562 limits assumed): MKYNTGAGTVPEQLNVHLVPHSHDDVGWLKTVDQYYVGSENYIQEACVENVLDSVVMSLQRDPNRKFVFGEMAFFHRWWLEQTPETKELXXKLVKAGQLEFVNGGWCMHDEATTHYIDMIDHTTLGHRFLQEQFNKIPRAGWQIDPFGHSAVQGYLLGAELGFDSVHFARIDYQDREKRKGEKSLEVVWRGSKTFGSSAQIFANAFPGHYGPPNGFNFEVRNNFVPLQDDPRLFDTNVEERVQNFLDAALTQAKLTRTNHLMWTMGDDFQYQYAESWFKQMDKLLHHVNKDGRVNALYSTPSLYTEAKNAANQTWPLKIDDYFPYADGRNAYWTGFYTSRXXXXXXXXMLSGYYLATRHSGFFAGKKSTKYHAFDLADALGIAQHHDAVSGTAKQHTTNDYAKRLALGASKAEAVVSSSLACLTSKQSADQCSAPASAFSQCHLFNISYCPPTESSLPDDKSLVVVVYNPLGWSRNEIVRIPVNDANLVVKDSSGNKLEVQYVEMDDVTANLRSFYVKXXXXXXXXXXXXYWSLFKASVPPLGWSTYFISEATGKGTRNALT
T2 sequence (C0HJB3 563-981 limits assumed): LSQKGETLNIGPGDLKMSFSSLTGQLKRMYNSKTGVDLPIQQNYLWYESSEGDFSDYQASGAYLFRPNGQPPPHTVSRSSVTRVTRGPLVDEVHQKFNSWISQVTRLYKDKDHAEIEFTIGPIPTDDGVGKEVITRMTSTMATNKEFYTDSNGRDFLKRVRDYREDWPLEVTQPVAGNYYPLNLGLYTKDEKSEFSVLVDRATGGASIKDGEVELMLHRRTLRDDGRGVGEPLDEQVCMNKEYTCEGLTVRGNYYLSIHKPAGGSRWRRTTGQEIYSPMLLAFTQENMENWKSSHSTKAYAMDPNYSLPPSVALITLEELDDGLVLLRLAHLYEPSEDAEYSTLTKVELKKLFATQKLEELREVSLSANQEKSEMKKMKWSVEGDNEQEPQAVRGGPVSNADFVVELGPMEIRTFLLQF
Put plainly: Alpha mannosidase inhibition, pH 7.4. The settings on record: for inhibition at 1000 µM: @ 1 mM; for inhibition at 5000 µM: @ 5 mM.

Assay [4] has as its target T2, ALPHA MANNOSIDASE
In words: Alpha mannosidase inhibition, pH 4.5. The conditions noted are these: for inhibition at 1000 µM: @ 1 mM; for inhibition at 5000 µM: @ 5 mM.

T1 sequence (P53341 whole entry): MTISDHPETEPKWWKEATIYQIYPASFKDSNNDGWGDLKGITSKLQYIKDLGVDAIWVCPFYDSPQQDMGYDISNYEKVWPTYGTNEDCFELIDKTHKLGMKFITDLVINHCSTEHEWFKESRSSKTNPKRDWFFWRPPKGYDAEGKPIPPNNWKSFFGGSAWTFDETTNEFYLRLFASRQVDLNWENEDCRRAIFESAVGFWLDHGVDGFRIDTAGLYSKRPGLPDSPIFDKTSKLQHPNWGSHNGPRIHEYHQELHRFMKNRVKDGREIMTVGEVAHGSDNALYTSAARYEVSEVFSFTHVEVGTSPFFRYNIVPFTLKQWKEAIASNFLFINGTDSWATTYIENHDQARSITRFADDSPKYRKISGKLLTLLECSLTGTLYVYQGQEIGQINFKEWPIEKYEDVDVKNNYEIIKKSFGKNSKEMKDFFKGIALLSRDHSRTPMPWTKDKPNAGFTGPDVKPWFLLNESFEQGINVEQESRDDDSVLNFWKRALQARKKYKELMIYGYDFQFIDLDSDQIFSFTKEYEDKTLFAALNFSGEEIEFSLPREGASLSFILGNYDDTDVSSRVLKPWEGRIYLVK

`OC[C@H]1NC[C@H](F)[C@@H](O)[C@@H]1O` [Compound 1, 1,2-dideoxy-2-fluoronojirimycin]: the inhibition (usually the change of the read-out against control, counted positive when it falls) at 1000 µM at yeast α-glucosidase is 24%; on ALPHA MANNOSIDASE [3], 19%; on ALPHA MANNOSIDASE [4] it was 4%. The inhibition at 5000 µM at yeast α-glucosidase was found to be 64%; at ALPHA MANNOSIDASE [3] it was 11%; at ALPHA MANNOSIDASE [4] it was 5%. The “BETA GLUCOSIDASE-pH 7.4 inhibition” value in the assay on almond β-glucosidase [1] (@ 1 mM) is recorded as 11%; in the assay on almond β-glucosidase [1] (@ 5 mM) it was 25%. Besides, the “BETA GLUCOSIDASE-pH 4.8 inhibition” value in the assay on almond β-glucosidase [2] (@ 1 mM) came to 6%; with almond β-glucosidase [2] (@ 5 mM), 25%.

As to `CCCCN1C[C@H](F)[C@@H](O)[C@H](O)[C@H]1CO` [Compound 2, N-butyl-1,2-dideoxy-2-fluoronojirimycin], the inhibition at 1000 µM amounted to 8% at yeast α-glucosidase, 4% at ALPHA MANNOSIDASE [3] and 3% on ALPHA MANNOSIDASE [4]. Moreover, the inhibition at 5000 µM at yeast α-glucosidase was 13%; against ALPHA MANNOSIDASE [3], 12%; at ALPHA MANNOSIDASE [4], 5%. Moreover, the “BETA GLUCOSIDASE-pH 7.4 inhibition” value was determined as 4% in the assay on almond β-glucosidase [1] (@ 1 mM) and 11% with almond β-glucosidase [1] (@ 5 mM). Further, the “BETA GLUCOSIDASE-pH 4.8 inhibition” value with almond β-glucosidase [2] (@ 1 mM) is listed as 2%; in the assay with almond β-glucosidase [2] (@ 5 mM), -6%.

The values above are taken from patent US5175168A, “Intermediates for 1,2-dideoxy-2-fluoronojirimycin” (Monsanto Company, priority 1991, dated 1992).
